Results on 1 compound are retold here after article PMC12454603 (Archives of Toxicology, 2025).

Each structure is given as a SMILES string.

Series [1] concerns ES-D3 cells. The experiment in a line: ES-D3 cell cytotoxicity (WST-1 viability) assay of the mEST. The series is classed as cell-based, mouse. Particulars: 1-day and 5-day cytotoxicity, ES-D3 cells. As for the experimental part:
The viability of the ES-D3 cells following 1-day and 5-day exposure to the test compounds was measured with the WST-1 assay. To this end, 100 µL cell suspension was seeded in the inner 60 wells of 96-well plates at a concentration of 2 × 10^5 cells/ml for 1-day exposure and 10^4 cells/ml for 5-day exposure and incubated at 37 °C with 5% CO2 for 24 h. After 24 h, 100 µL exposure medium with 0.25% DMSO and the required concentration of the test compounds, solvent control, and positive control were added to the cells in triplicate. The plates were incubated at 37 °C with 5% CO2 for 1 day or 5 days until measurement. After the exposure period, 20 µL of the cell proliferation reagent WST-1 were added to each well that contained cells and the cells were incubated for 3 h at 37 °C with 5% CO2. The absorbance of each plate was measured at 440 nm and 620 nm with a SpectraMax iD3 (San Jose, USA).
The concentration–response data for the test compounds in the mEST were presented in three curves including curves for 1-day cytotoxicity, 5-day cytotoxicity, and 10-day differentiation assays. The obtained curves were fitted using the inhibition equation log (inhibitor) vs response (three parameters) option using GraphPad Prism software 5.0 (California, USA).
A general note: Tetrazolium assays rely on reduction of a dye to a coloured formazan, in cell work by metabolically active cells.

Series [2] in a line: In vivo kinetic study, intravenous 50 mg/kg bw, blood concentrations. Particulars: rat, 50 mg/kg bw parent PAH. As for the experimental part:
Six male Sprague–Dawley rats at the age of 8–9 weeks weighing 286-305g/rat were obtained from Charles River Inc (Beijing, China). The rats were maintained in plastic cages in two groups of three in a temperature-controlled (ranging from 20 °C to 25 °C) and humidity-controlled (ranging from 40–70%) environment on a 12-h light–dark cycle. The animal bedding was corncob and used after autoclaving. The bedding and the cages were changed twice a week. The number of animals was restricted to 3 per dose group and control blood samples were collected before dosing. Feeding and living conditions followed the Chinese Laboratory Animal-Requirement of environment and housing facilities (GB14925-2010). The present rat study was approved by Institutional Animal Care and Use Committee (IACUC-BF202305006).
All animals were fasted 8 h before intravenous injection and resumed feed supply 4 h after dosing.
After administration, blood samples (0.1–0.2 ml blood volume) were taken from the medial canthus venous plexus of the animal and anticoagulated with sodium heparin. Prior to orbital venipuncture and blood collection, the animals were anesthetized by CO2 inhalation (70% CO2 + 30% O2). Blood was sampled at 1 min, 0.5, 1, 2, 4, 8, 12, 24, 32, 48, and 72 h post-dosing. After collection, blood samples were frozen and were stored at −20 °C until analysis. All animals were euthanized with 100% CO2 after the experiment.
Aliquots of 100 µL of blood samples were transferred into centrifuge tubes and 700 µL sodium acetate buffer (0.1M, pH 5.0) and 6 µL β-glucuronidase-arylsulfatase were added. The samples were incubated for 1 h at 37 °C and subsequently extracted twice with 800 µL ethyl acetate saturated with water. The samples were shaken for 30 min and centrifuged 5 min at 2000 g (4 °C). The upper organic phase was transferred to a centrifuge tube and evaporated under a gentle stream of nitrogen at 40 ℃ in a water bath. The residues were re-dissolved with 200 µL ascorbic acid:methanol (1:100). […]

Regarding `Cc1ccc2c(c1)cc1ccc3c(O)ccc4ccc2c1c43` [3-OH-8-MBaP, 3-Hydroxy-8-methyl-benzo[a]pyrene], the “Cytotoxicity accompanying the inhibition of differentiation” value in series [1] is on record as “without accompanying cytotoxicity”. Besides, in series [2], the “Observed in vivo Cmax relative to the model prediction (lower)” value is on record as 3.4 fold and the “Observed in vivo blood concentration compared with that of 3-OHBaP” value is “comparable”.
